Data from patent publication US5939399A, “Polyene antibiotics, 3874 H1 to H6, processes for their preparation and use” (Hoechst Aktiengesellschaft, priority 1996, dated 1999).
Values after ≈ are worked out from the molar mass of the structure shown.

What was measured:
Chemical stability = type: physicochemical; settings: for Stability (unstable in / on exposure to): acidic and strongly alkaline solution, light, heat and oxygen; for Stability (stable in): neutral and weakly alkaline medium
[1] = Solubility in organic solvents; type: physicochemical
test microbes = experiment: Agar diffusion test, zones of inhibition; type: cell-based; settings: for Zone of inhibition (diameter) / zone of inhibition at 25 µg/mL / zone of inhibition at 50 µg/mL / zone of inhibition at 100 µg/mL / zone of inhibition at 200 µg/mL: agar layer; for zone of inhibition at 25 µg/mL: concentration 0.025 mg/mL; for zone of inhibition at 25 µg/mL / zone of inhibition at 50 µg/mL / zone of inhibition at 100 µg/mL / zone of inhibition at 200 µg/mL / zone of inhibition at 6.3 µg/mL / zone of inhibition at 12.5 µg/mL: read-out: Zone of inhibition (diameter); for zone of inhibition at 50 µg/mL: concentration 0.05 mg/mL; for zone of inhibition at 100 µg/mL: concentration 0.1 mg/mL; for zone of inhibition at 200 µg/mL: concentration 0.2 mg/mL
Excerpt: The superiority of the antibiotics according to the invention is shown particularly in so-called diffusion tests in which the compounds diffuse in an agar layer containing the test microbes. The diameter of the zones of inhibition is then a measure of the activity of the antibiotics (Table 3).

C. neoformans ATCC 90112 = experiment: In vitro microdilution test in RPMI 1640 medium; type: cell-based; settings: Cryptococcus neoformans, ATCC90112, yeast C. neoformans ATCC 90112, 48 h at 35° C., read-out: Minimum inhibitory concentration MIC
Protocol: (§1) In vitro activity on dermatophytes, yeasts and molds
(§2) (microdilution test in RPMI 1640 medium)
(§3) Incubation: 48 h at 35° C. (yeasts) or 6 days at 30° C. (dermatophytes and molds)

C. krusei 203/230 = experiment: In vitro microdilution test in RPMI 1640 medium; type: cell-based; settings: Pichia kudriavzevii, yeast C. krusei 203/230, 48 h at 35° C., read-out: Minimum inhibitory concentration MIC
Protocol: as §1, §2, §3

T. rubrum 101/58 = experiment: In vitro microdilution test in RPMI 1640 medium; type: cell-based; settings: Trichophyton rubrum, 144 h, dermatophyte T. rubrum 101/58, 6 days at 30° C., read-out: Minimum inhibitory concentration MIC
Protocol: as §1, §2, §3

A. niger ATCC 16404 = experiment: In vitro microdilution test in RPMI 1640 medium; type: cell-based; settings: Aspergillus niger, ATCC16404, 144 h, mold A. niger ATCC 16404, 6 days at 30° C., read-out: Minimum inhibitory concentration MIC
Protocol: as §1, §2, §3

[2] = system: C. pseudotropicalis 202/218; experiment: In vitro microdilution test in RPMI 1640 medium; type: cell-based; settings: Kluyveromyces marxianus, yeast C. pseudotropicalis 202/218, 48 h at 35° C., read-out: Minimum inhibitory concentration MIC
Protocol: as §1, §2, §3

C. tropicalis 201/202 = experiment: In vitro microdilution test in RPMI 1640 medium; type: cell-based; settings: Candida tropicalis, yeast C. tropicalis 201/202, 48 h at 35° C., read-out: Minimum inhibitory concentration MIC
Protocol: as §1, §2, §3

C. glabrata ATCC 90030 = experiment: In vitro microdilution test in RPMI 1640 medium; type: cell-based; settings: Nakaseomyces glabratus, ATCC90030, yeast C. glabrata ATCC 90030, 48 h at 35° C., read-out: Minimum inhibitory concentration MIC
Protocol: as §1, §2, §3

E. floccosum 190/143 = experiment: In vitro microdilution test in RPMI 1640 medium; type: cell-based; settings: Epidermophyton floccosum, 144 h, dermatophyte E. floccosum 190/143, 6 days at 30° C., read-out: Minimum inhibitory concentration MIC
Protocol: as §1, §2, §3

C. glabrata Berlin 12 = experiment: In vitro microdilution test in RPMI 1640 medium; type: cell-based; settings: Nakaseomyces glabratus, BERLIN12, yeast C. glabrata Berlin 12, 48 h at 35° C., read-out: Minimum inhibitory concentration MIC
Protocol: as §1, §2, §3

T. mentagrophytes 100/25 = experiment: In vitro microdilution test in RPMI 1640 medium; type: cell-based; settings: Trichophyton mentagrophytes, 144 h, dermatophyte T. mentagrophytes 100/25, 6 days at 30° C., read-out: Minimum inhibitory concentration MIC
Protocol: as §1, §2, §3

C. albicans ATCC 90029 = experiment: In vitro microdilution test in RPMI 1640 medium; type: cell-based; settings: Candida albicans, ATCC90029, yeast C. albicans ATCC 90029, 48 h at 35° C., read-out: Minimum inhibitory concentration MIC
Protocol: as §1, §2, §3

C. tropicalis 201/201 = experiment: In vitro microdilution test in RPMI 1640 medium; type: cell-based; settings: Candida tropicalis, yeast C. tropicalis 201/201, 48 h at 35° C., read-out: Minimum inhibitory concentration MIC
Protocol: as §1, §2, §3

A. fumigatus ATCC 9197 = experiment: In vitro microdilution test in RPMI 1640 medium; type: cell-based; settings: Aspergillus fumigatus, ATCC9197, 144 h, mold A. fumigatus ATCC 9197, 6 days at 30° C., read-out: Minimum inhibitory concentration MIC
Protocol: as §1, §2, §3

C. albicans ATCC 90028 = experiment: In vitro microdilution test in RPMI 1640 medium; type: cell-based; settings: Candida albicans, ATCC90028, yeast C. albicans ATCC 90028, 48 h at 35° C., read-out: Minimum inhibitory concentration MIC
Protocol: as §1, §2, §3

C. krusei Berlin 1 = experiment: In vitro microdilution test in RPMI 1640 medium; type: cell-based; settings: Pichia kudriavzevii, BERLIN1, yeast C. krusei Berlin 1, 48 h at 35° C., read-out: Minimum inhibitory concentration MIC
Protocol: as §1, §2, §3

[3] = system: C. parapsilosis ATCC 90018; experiment: In vitro microdilution test in RPMI 1640 medium; type: cell-based; settings: Lodderomyces parapsilosis, ATCC90018, yeast C. parapsilosis ATCC 90018, 48 h at 35° C., read-out: Minimum inhibitory concentration MIC
Protocol: as §1, §2, §3

A. flavus ATCC 9643 = experiment: In vitro microdilution test in RPMI 1640 medium; type: cell-based; settings: Aspergillus flavus, ATCC9643, 144 h, mold A. flavus ATCC 9643, 6 days at 30° C., read-out: Minimum inhibitory concentration MIC
Protocol: as §1, §2, §3

[4] = Binding to ergosterol compared with cholesterol

Compound	Stability (unstable in / on exposure to) (Chemical stability)	Stability (stable in) (Chemical stability)	Solubility [1]	zone of inhibition at 25 µg/mL (test microbes)	zone of inhibition at 50 µg/mL (test microbes)	zone of inhibition at 100 µg/mL (test microbes)	zone of inhibition at 200 µg/mL (test microbes)	MIC (C. neoformans ATCC 90112)	MIC (C. krusei 203/230)	MIC (T. rubrum 101/58)	MIC (A. niger ATCC 16404)	MIC [2]	MIC (C. tropicalis 201/202)	MIC (C. glabrata ATCC 90030)	MIC (E. floccosum 190/143)	MIC (C. glabrata Berlin 12)	MIC (T. mentagrophytes 100/25)	MIC (C. albicans ATCC 90029)	MIC (C. tropicalis 201/201)	MIC (A. fumigatus ATCC 9197)	also measured
CNc1ccc(C(=O)CC(O)CCC(C)C2OC(=O)CC(O)CC(O)CCCC(O)CC(O)CC(O)CC3(O)CC(O)C(C(=O)O)C(CC(OC4OC(C)C(O)C(N)C4O)/C=C/C=C/C=C/C=C\C=C/C=C/C=C/C2C)O3)cc1 (stereo not drawn) [3874 H2]	unstable in acidic and strongly alkaline solution and on exposure to light, heat and oxygen	Stable in neutral and weakly alkaline medium	soluble in methanol, acetonitrile and chloroform																		
C[C@@H]1[C@H](O)[C@@H](C)/C=C/C=C/C=C/C=C/C=C/C=C/C=C/[C@H](O[C@@H]2O[C@H](C)[C@@H](O)[C@H](N)[C@@H]2O)C[C@@H]2O[C@](O)(C[C@@H](O)C[C@@H](O)[C@H](O)CC[C@@H](O)C[C@@H](O)CC(=O)O[C@H]1C)C[C@H](O)[C@H]2C(=O)O [Amphotericin B, amphotericin B, reference compound]			only very low solubility in the said solvents and others	8 mm	10 mm	12 mm	14 mm														Zone of inhibition (diameter) (test microbes; concentration 0.0063 mg/mL): .o slashed.; Zone of inhibition (diameter) (test microbes; concentration 0.0125 mg/mL): .o slashed.
CC1/C=C/C=C/C=C\C=C/C=C/C=C/C=C/C(OC2OC(C)C(O)C(N)C2O)CC2OC(O)(CC(O)CC(O)CC(O)CCCC(O)CC(O)CC(=O)OC1C(C)CCC(O)CC(=O)c1ccc(N)cc1)CC(O)C2C(=O)O (stereo not drawn) [3874 H1]	unstable in acidic and strongly alkaline solution and on exposure to light, heat and oxygen	Stable in neutral and weakly alkaline medium	soluble in methanol, acetonitrile and chloroform	21 mm	24 mm	25 mm	26 mm	2 µg/mL (≈ 1.82 µM)	4 µg/mL (≈ 3.64 µM)	16 µg/mL (≈ 14.6 µM)	2 µg/mL (≈ 1.82 µM)	2 µg/mL (≈ 1.82 µM)	2 µg/mL (≈ 1.82 µM)	4 µg/mL (≈ 3.64 µM)	16 µg/mL (≈ 14.6 µM)	2 µg/mL (≈ 1.82 µM)	4 µg/mL (≈ 3.64 µM)	2 µg/mL (≈ 1.82 µM)	2 µg/mL (≈ 1.82 µM)	4 µg/mL (≈ 3.64 µM)	MIC (C. albicans ATCC 90028): 2 µg/mL (≈ 1.82 µM); MIC (C. krusei Berlin 1): 2 µg/mL (≈ 1.82 µM); MIC [3]: 4 µg/mL (≈ 3.64 µM); MIC (A. flavus ATCC 9643): 8 µg/mL (≈ 7.28 µM); zone of inhibition at 6.3 µg/mL (test microbes): 17 mm; zone of inhibition at 12.5 µg/mL (test microbes): 19 mm
C/C=C/C=C/C(=O)CC(O)CCC(C)C1OC(=O)CC(O)CC(O)CCCC(O)CC(O)CC(O)CC2(O)CC(O)C(C(=O)O)C(CC(OC3OC(C)C(O)C(N)C3O)/C=C/C=C/C=C/C=C\C=C/C=C/C=C/C1C)O2 (stereo not drawn) [3874 H3]	unstable in acidic and strongly alkaline solution and on exposure to light, heat and oxygen	Stable in neutral and weakly alkaline medium	soluble in methanol and other lower alcohols, acetonitrile and chloroform	14 mm	18 mm	20 mm	22 mm	2 µg/mL (≈ 1.86 µM)	4 µg/mL (≈ 3.72 µM)	16 µg/mL (≈ 14.9 µM)	8 µg/mL (≈ 7.45 µM)	4 µg/mL (≈ 3.72 µM)	4 µg/mL (≈ 3.72 µM)	4 µg/mL (≈ 3.72 µM)	16 µg/mL (≈ 14.9 µM)	4 µg/mL (≈ 3.72 µM)	8 µg/mL (≈ 7.45 µM)	4 µg/mL (≈ 3.72 µM)	4 µg/mL (≈ 3.72 µM)	4 µg/mL (≈ 3.72 µM)	MIC (C. albicans ATCC 90028): 4 µg/mL (≈ 3.72 µM); MIC (C. krusei Berlin 1): 2 µg/mL (≈ 1.86 µM); MIC [3]: 4 µg/mL (≈ 3.72 µM); MIC (A. flavus ATCC 9643): 16 µg/mL (≈ 14.9 µM); Binding to ergosterol versus cholesterol [4]: bind more strongly to ergosterol than to cholesterol; zone of inhibition at 6.3 µg/mL (test microbes): 12 mm; zone of inhibition at 12.5 µg/mL (test microbes): 13 mm
